{"source": "patent US6852759B2", "about": "“Process for the synthesis of trans-alkenoic acids, use thereof” (priority 2002, dated 2005)", "key": {"[1]": {"tested_on": "CCl4 induced hepatic injury in rats", "assay": "Hepatoprotective activity, curative study, CCl4", "type": "in vivo"}, "[2]": {"tested_on": "D-Galactosamine (Gal N) induced hepatic injury in rats", "assay": "Hepatoprotective activity, curative study, D-Galactosamine", "type": "in vivo"}, "[3]": {"tested_on": "CCl4, Paracetamol, Galactosamine and alcohol as hepatotoxins", "assay": "Antihepatotoxicity/hepato-protective activity in vivo, overall comparison with silymarin", "conditions": "prophylactic and curative aspects in vivo"}, "[4]": {"conditions": "12.5 mg/kg p.o. + CCl4, curative"}, "[5]": {"conditions": "100 mg/kg p.o. + CCl4, curative"}, "[6]": {"conditions": "TCA alone 100 mg/kg p.o., no CCl4, curative study"}, "[7]": {"conditions": "12.5 mg/kg p.o. + Gal N, curative"}, "[8]": {"conditions": "25 mg/kg p.o. + Gal N, curative"}, "[9]": {"conditions": "50 mg/kg p.o. + Gal N, curative"}, "[10]": {"conditions": "TCA alone 50 mg/kg p.o., no Gal N, curative study"}}, "data": [{"smiles": "CCCCCCCC/C=C/CCCCCCCCCCCCCC(=O)O", "note": "[TCA, t-Tetracos-15-enoic acid]", "values": [{"measurement": "Serum GOT, hepatoprotective activity percent", "setting": "[1]; [4]", "value": "(37.12 ± 5.14) percent"}, {"measurement": "Serum GPT", "setting": "[1]; [4]", "value": "1001.86 ± 48.55", "unit": "Units"}, {"measurement": "Serum GPT, hepatoprotective activity percent", "setting": "[1]; [4]", "value": "(35.59 ± 3.37) percent"}, {"measurement": "Serum Triglycerides", "setting": "[1]; [4]", "value": "12.57 ± 0.61^NS mg %"}, {"measurement": "Serum Triglycerides, hepatoprotective activity percent", "setting": "[1]; [4]", "value": "(24.12 ± 10.07) percent"}, {"measurement": "Serum ALP", "setting": "[1]; 25 mg/kg p.o. + CCl4, curative", "value": "50.92 ± 1.62 μmole of p-nitrophenol formed/min/L"}, {"measurement": "Serum ALP, hepatoprotective activity percent", "setting": "[1]; 25 mg/kg p.o. + CCl4, curative", "value": "(34.03 ± 3.89) percent"}, {"measurement": "Serum Bilirubin", "setting": "[1]; 25 mg/kg p.o. + CCl4, curative", "value": "0.47 ± 0.03", "unit": "mg %"}, {"measurement": "Serum Bilirubin, hepatoprotective activity percent", "setting": "[1]; 25 mg/kg p.o. + CCl4, curative", "value": "(53.51 ± 4.06) percent"}, {"measurement": "Serum GOT", "setting": "[1]; 25 mg/kg p.o. + CCl4, curative", "value": "448.28 ± 54.88", "unit": "Units"}, {"measurement": "Serum GOT, hepatoprotective activity percent", "setting": "[1]; 25 mg/kg p.o. + CCl4, curative", "value": "(48.31 ± 8.808) percent"}, {"measurement": "Serum GPT", "setting": "[1]; 25 mg/kg p.o. + CCl4, curative", "value": "772.68 ± 47.66", "unit": "Units"}, {"measurement": "Serum GPT, hepatoprotective activity percent", "setting": "[1]; 25 mg/kg p.o. + CCl4, curative", "value": "(51.52 ± 3.31) percent"}, {"measurement": "Serum Triglycerides", "setting": "[1]; 25 mg/kg p.o. + CCl4, curative", "value": "11.81 ± 1.05^NS mg %"}, {"measurement": "Serum Triglycerides, hepatoprotective activity percent", "setting": "[1]; 25 mg/kg p.o. + CCl4, curative", "value": "(36.23 ± 18.23) percent"}, {"measurement": "Serum ALP", "setting": "[1]; 50 mg/kg p.o. + CCl4, curative", "value": "43.63 ± 2.82 μmole of p-nitrophenol formed/min/L"}, {"measurement": "Serum ALP, hepatoprotective activity percent", "setting": "[1]; 50 mg/kg p.o. + CCl4, curative", "value": "(51.57 ± 6.78) percent"}, {"measurement": "Serum Bilirubin", "setting": "[1]; 50 mg/kg p.o. + CCl4, curative", "value": "0.39 ± 0.02", "unit": "mg %"}, {"measurement": "Serum Bilirubin, hepatoprotective activity percent", "setting": "[1]; 50 mg/kg p.o. + CCl4, curative", "value": "(64.25 ± 3.76) percent"}, {"measurement": "Serum GOT", "setting": "[1]; 50 mg/kg p.o. + CCl4, curative", "value": "365.43 ± 29.43", "unit": "Units"}, {"measurement": "Serum GOT, hepatoprotective activity percent", "setting": "[1]; 50 mg/kg p.o. + CCl4, curative", "value": "(60.50 ± 4.33) percent"}, {"measurement": "Serum GPT", "setting": "[1]; 50 mg/kg p.o. + CCl4, curative", "value": "582.12 ± 37.77", "unit": "Units"}, {"measurement": "Serum GPT, hepatoprotective activity percent", "setting": "[1]; 50 mg/kg p.o. + CCl4, curative", "value": "(64.76 ± 2.62) percent"}, {"measurement": "Serum Triglycerides", "setting": "[1]; 50 mg/kg p.o. + CCl4, curative", "value": "11.06 ± 0.61", "unit": "mg %"}, {"measurement": "Serum Triglycerides, hepatoprotective activity percent", "setting": "[1]; 50 mg/kg p.o. + CCl4, curative", "value": "(48.86 ± 10.64) percent"}, {"measurement": "Serum ALP", "setting": "[1]; [5]", "value": "32.93 ± 2.13 μmole of p-nitrophenol formed/min/L"}, {"measurement": "Serum ALP, hepatoprotective activity percent", "setting": "[1]; [5]", "value": "(77.31 ± 5.13) percent"}, {"measurement": "Serum Bilirubin", "setting": "[1]; [5]", "value": "0.29 ± 0.02", "unit": "mg %"}, {"measurement": "Serum Bilirubin, hepatoprotective activity percent", "setting": "[1]; [5]", "value": "(76.54 ± 3.66) percent"}, {"measurement": "Serum GOT", "setting": "[1]; [5]", "value": "318.96 ± 16.15", "unit": "Units"}, {"measurement": "Serum GOT, hepatoprotective activity percent", "setting": "[1]; [5]", "value": "(67.35 ± 2.38) percent"}, {"measurement": "Serum GPT", "setting": "[1]; [5]", "value": "457.55 ± 18.18", "unit": "Units"}, {"measurement": "Serum GPT, hepatoprotective activity percent", "setting": "[1]; [5]", "value": "(73.41 ± 1.26) percent"}, {"measurement": "Serum Triglycerides", "setting": "[1]; [5]", "value": "10.37 ± 0.65", "unit": "mg %"}, {"measurement": "Serum Triglycerides, hepatoprotective activity percent", "setting": "[1]; [5]", "value": "(61.02 ± 11.24) percent"}, {"measurement": "Serum ALP", "setting": "[1]; [6]", "value": "25.84 ± 2.32 μmole of p-nitrophenol formed/min/L"}, {"measurement": "Serum Bilirubin", "setting": "[1]; [6]", "value": "0.16 ± 0.02", "unit": "mg %"}, {"measurement": "Serum GOT", "setting": "[1]; [6]", "value": "82.13 ± 10.59", "unit": "Units"}, {"measurement": "Serum GPT", "setting": "[1]; [6]", "value": "92.18 ± 15.75", "unit": "Units"}, {"measurement": "Serum Triglycerides", "setting": "[1]; [6]", "value": "6.98 ± 0.86", "unit": "mg %"}, {"measurement": "Serum ALP", "setting": "[2]; [7]", "value": "46.03 ± 2.35^NS μmole of p-niotrophenol formed/min/L"}, {"measurement": "Serum ALP, hepatoprotective activity percent", "setting": "[2]; [7]", "value": "(43.65 ± 6.96) percent"}, {"measurement": "Serum Bilirubin", "setting": "[2]; [7]", "value": "0.56 ± 0.03", "unit": "mg %"}, {"measurement": "Serum Bilirubin, hepatoprotective activity percent", "setting": "[2]; [7]", "value": "(46.75 ± 3.74) percent"}, {"measurement": "Serum GOT", "setting": "[2]; [7]", "value": "494.53 ± 41.13", "unit": "Units"}, {"measurement": "Serum GOT, hepatoprotective activity percent", "setting": "[2]; [7]", "value": "(34.12 ± 6.65) percent"}, {"measurement": "Serum GPT", "setting": "[2]; [7]", "value": "578.14 ± 57.37", "unit": "Units"}, {"measurement": "Serum GPT, hepatoprotective activity percent", "setting": "[2]; [7]", "value": "(40.40 ± 7.08) percent"}, {"measurement": "Serum Triglycerides", "setting": "[2]; [7]", "value": "11.85 ± 0.75^NS mg %"}, {"measurement": "Serum Triglycerides, hepatoprotective activity percent", "setting": "[2]; [7]", "value": "(32.78 ± 8.37) percent"}, {"measurement": "Serum ALP", "setting": "[2]; [8]", "value": "38.87 ± 2.62 μmole of p-niotrophenol formed/min/L"}, {"measurement": "Serum ALP, hepatoprotective activity percent", "setting": "[2]; [8]", "value": "(64.83 ± 7.74) percent"}, {"measurement": "Serum Bilirubin", "setting": "[2]; [8]", "value": "0.46 ± 0.03", "unit": "mg %"}, {"measurement": "Serum Bilirubin, hepatoprotective activity percent", "setting": "[2]; [8]", "value": "(59.74 ± 4.04) percent"}, {"measurement": "Serum GOT", "setting": "[2]; [8]", "value": "449.93 ± 31.58", "unit": "Units"}, {"measurement": "Serum GOT, hepatoprotective activity percent", "setting": "[2]; [8]", "value": "(41.37 ± 5.10) percent"}, {"measurement": "Serum GPT", "setting": "[2]; [8]", "value": "518.66 ± 42.64", "unit": "Units"}, {"measurement": "Serum GPT, hepatoprotective activity percent", "setting": "[2]; [8]", "value": "(47.74 ± 5.26) percent"}, {"measurement": "Serum Triglycerides", "setting": "[2]; [8]", "value": "10.48 ± 0.91^NS mg %"}, {"measurement": "Serum Triglycerides, hepatoprotective activity percent", "setting": "[2]; [8]", "value": "(46.11 ± 9.77) percent"}, {"measurement": "Serum ALP", "setting": "[2]; [9]", "value": "36.94 ± 1.87 μmole of p-niotrophenol formed/min/L"}, {"measurement": "Serum ALP, hepatoprotective activity percent", "setting": "[2]; [9]", "value": "(71.88 ± 5.54) percent"}, {"measurement": "Serum Bilirubin", "setting": "[2]; [9]", "value": "0.35 ± 0.02", "unit": "mg %"}, {"measurement": "Serum Bilirubin, hepatoprotective activity percent", "setting": "[2]; [9]", "value": "(73.16 ± 2.95) percent"}, {"measurement": "Serum GOT", "setting": "[2]; [9]", "value": "391.66 ± 29.53", "unit": "Units"}, {"measurement": "Serum GOT, hepatoprotective activity percent", "setting": "[2]; [9]", "value": "(50.76 ± 4.78) percent"}, {"measurement": "Serum GPT", "setting": "[2]; [9]", "value": "412.17 ± 31.17", "unit": "Units"}, {"measurement": "Serum GPT, hepatoprotective activity percent", "setting": "[2]; [9]", "value": "(60.88 ± 3.85) percent"}, {"measurement": "Serum Triglycerides", "setting": "[2]; [9]", "value": "9.23 ± 0.59", "unit": "mg %"}, {"measurement": "Serum Triglycerides, hepatoprotective activity percent", "setting": "[2]; [9]", "value": "(61.84 ± 6.59) percent"}, {"measurement": "Serum ALP", "setting": "[2]; [10]", "value": "24.45 ± 2.76 μmole of p-niotrophenol formed/min/L"}, {"measurement": "Serum Bilirubin", "setting": "[2]; [10]", "value": "0.19 ± 0.02", "unit": "mg %"}, {"measurement": "Serum GOT", "setting": "[2]; [10]", "value": "91.07 ± 10.50", "unit": "Units"}, {"measurement": "Serum GPT", "setting": "[2]; [10]", "value": "105.02 ± 18.74", "unit": "Units"}, {"measurement": "Serum Triglycerides", "setting": "[2]; [10]", "value": "6.44 ± 0.38", "unit": "mg %"}, {"measurement": "antihepatotoxicity/hepato-protective activity compared with silymarin", "setting": "[3]", "value": "better protection and reversal of biochemical parameters better then those obtained with silymarin"}]}]}
